Laboratory results: patent publication US20180171288A1, “METHODS OF TREATING CANCER” (THE UNIVERSITY OF ROCHESTER, priority 2016, published 2018)
“And” between values parts separate entries of the source, which are not always exact repeats. Identical values can stand only once. “Also recorded” adds a separate entry of the source. Like-named read-outs stand apart in the source and are kept apart here.

Columns and labels:
GBM cells [1] = assay: Protein levels of direct and indirect c-Cbl targets in GBM cells; format: cell-based, human
Experimental: Alternatively, restoration of c-Cbl function can be determined by analysis of changes in the levels of direct targets of c-Cbl, with changes in the levels of two or more c-Cbl targets caused by the application of a single therapeutic intervention being an indicator of c-Cbl activation. In such analyses, cells are treated with saline, with the CRA or DCLTD by itself, with a pro-oxidant or with the combination of a CRA or a DCLTD with a pro-oxidant. The ability of treatment with the combined agents to cause greater decreases in the levels of proteins that are direct targets of c-Cbl provides a surrogate indicator of c-Cbl activation.
Six of the 10 compounds remaining were chosen to determine whether they restored the ability of oxidation of cells to cause decreases in levels of a c-Cbl target, an outcome that occurs when c-Cbl is activated via the redox/Fyn/c-Cbl pathway. These compounds indeed restored the ability of pro-oxidative stimulation to cause decreases in the levels of the epidermal growth factor receptor (EGFR), which is a c-Cbl target known to be important in growth of many cancer cells and that is of interest as a potential target in cancer treatment.
There are two groups of such proteins, ones in which the connection to a c-Cbl target can be reasonably surmised based on prior research and ones for which the linkage to c-Cbl is currently unknown. Non-limiting examples of the first category of outcomes are activities of Erk1/2 and Akt, which both are downstream of receptor tyrosine kinases that are targets of c-Cbl. Further non-limiting examples are activity levels of NF-κB and serum response element (SRE), which are activated downstream of Akt and […], respectively.

GBM cells [2] = assay: Sensitivity of GBM cells to TMX / cell killing; format: cell-based, human
Source text: The cell lines studied represent a range of glioblastoma subtypes and genotypes and generate human glioblastomas when transplanted into the CNS of immune-deficient mice.

melanoma cells = assay: Sensitivity of melanoma cells to TMX; format: cell-based
c-Cbl = c-Cbl phosphorylation in GBM cells; format: cell-based, human
Experimental: In this approach, cancer cells are treated with a CRA or a DCLTD in the presence or absence of an agent that causes cells to become more oxidized. The status of c-Cbl phosphorylation may be analyzed by any of a number of means well-known to those skilled in the art, including Western blot analysis of cell lysates with an antibody that identifies phosphorylated c-Cbl, for instance at tyrosine residues Y731 or Y771, analysis of cell labeling with such antibodies which may be conjugated with a fluorescent probe that makes them suitable for analysis by fluorescence microscopy, immunohistochemistry or by automated fluorescence analysis of some form, or by CYTOF mass cytometry analysis. The change in phosphorylation status is compared with that seen in untreated cells, in cells treated with the CRA or DCLTD by itself, or that treated with a pro-oxidant by itself.
An example of the ability of DCLTDs to restore the ability of TMX to enhance phosphorylation of c-Cbl via the redox/Fyn/c-Cbl pathway is shown in FIG. 8. […] As predicted if activation was RFC pathway-mediated, such activation was inhibited by N-acetyl-L-cysteine (NAC, a glutathione pro-drug and anti-oxidant), thus confirming that TMX-induced activation of c-Cbl was dependent on the pro-oxidative activities of TMX.

[3] = tested on: complex between c-Cbl and Cool-1/βpix; assay: Complex between c-Cbl and Cool-1/βpix in GBM cells (immunoprecipitation, immunoblot); format: cell-based, human
Source text: Lysates of treated and untreated cells were immuno-precipitated with anti-c-Cbl antibody followed by immunoblot analysis for Cool-1/βpix expression.

Cool-1/βpix = Cool-1/βpix Serine340 phosphorylation (antibody blot / immunostaining); format: cell-based, human; settings: anti-phospho-Cool1/βpix antibody
[4] = tested on: OPCs isolated from the developing human central nervous system; assay: Sensitivity of human OPCs to anticancer agents; format: cell-based
Source text: This is a particularly difficult problem to solve in the context of cells of the central nervous system, as many of these cells are inherently more sensitive to anticancer agents than are cancer cells themselves. Previous studies have shown that one of the cell types of the brain that is most sensitive to the adverse effects of multiple chemotherapeutic agents are the oligodendrocyte progenitor cells (OPCs) that give rise to the myelin-forming oligodendrocytes of the central nervous system.

TMXR MCF-7 cells = assay: Growth and killing of TMXR MCF-7 cells in vitro; format: cell-based, human; settings: for vulnerability / resistance of TMXR MCF-7 cells to 4^OH-CPP: 3 μM MPT, 5 μM TMX, 5 μM 4^OH-CPP
[5] = tested on: tamoxifen-resistant luminal breast cancer cells
[6] = tested on: complex between c-Cbl and Cool-1/βpix; settings: TMX-resistant luminal breast cancer cells
tumor growth = settings: in combination with TMX; cited from earlier work
MDA-MB-231 cells = assay: Sensitivity of MDA-MB-231 BLBC cells to TMX; format: cell-based
Source text: Sertraline and mefloquine both were identified in screens on MDA-MB-231 BLBC cells, in which c-Cbl is inhibited in a Cdc42-dependent manner.

human TMXR MCF7 cells = assay: TMXR MCF7 mammary fat pad xenograft in NSG mice; settings: mouse, in vivo
GBM TICs = assay: Tumor generation by GBM cells treated in vitro and transplanted intra-cranially in NSG mice; format: in vivo; settings: cells exposed 72 hrs in vitro, four GBM cell lines
Source text: After treatment, 500,000 live cells were transplanted intra-cranially in NSG mice. […] In contrast with the effects of MPT+TMX in TICs, treatment with temozolomide (TMZ, the frontline treatment for glioblastoma), had no apparent effects on TICs (FIG. 12D).
Unexpectedly, in light of the partial reduction in levels of Cool-1/βpix, and the similarly partial reduction in levels of proteins important in TIC biology, treatment with DCLTD-based therapies eliminates TICs. […] After treatment, 500,000 live cells were transplanted intra-cranially in NSG mice. […] Thus, treatment with temozolomide had little apparent effect on TIC elimination, in agreement with patient data indicating rapid recurrence of tumor even during the period of temozolomide treatment.
Exposure of GBM cells to the combination of MPT+TMX led to the apparently complete elimination of GBM cancer stem cells. GBM cells from four different cell lines were exposed to MPT+TMX combination for 72 hrs in vitro, after which 500,000 live cells were transplanted intra-cranially in NSG mice.

parental MCF-7 cells = format: cell-based, human
hGBM27 = assay: Intracranial xenograft, hGBM27; format: in vivo, NSG mice
hGBM10 = assay: Intracranial xenograft, hGBM10; format: in vivo, NSG mice
human GBM cells = assay: Established intracranial human GBM xenografts in NSG mice (cohorts together)

With `CNCCCC12CCC(c3ccccc31)c1ccccc12` [MPT, maprotiline] the “levels of Cool-1/βpix” value (GBM cells [1]) was “decreases levels of the inhibitory protein Cool-1/βpix”, the “levels of the c-Cbl targets EGFR, Notch-1, β-catenin and PDGFRα” value (GBM cells [1]) was “decreases were less marked” and the “sensitivity of GBM cells to TMX” value (GBM cells [2]) was “enhanced the sensitivity of GBM cells; also recorded: increase in tamoxifen sensitivity”. For the same molecule, the “sensitivity of melanoma cells to TMX” value (melanoma cells) was “increased the sensitivity of melanoma cells to TMX”, the c-Cbl phosphorylation (c-Cbl) was “enabled TMX-induced c-Cbl phosphorylation” and the “levels of the complex between c-Cbl and Cool-1/βpix” value [3] was “virtually complete elimination of complexes; also recorded: marked reductions in levels of the complex”. The “Cool-1/βpix phosphorylation on Serine340” value (Cool-1/βpix) was “decreases the level of staining; also recorded: causes a decrease in levels of Cool-1/βpix phosphorylation”, the “sensitivity of OPCs to TMX” value [4] was “did not increase the sensitivity” and the “sensitivity of OPCs to temozolomide” value [4] was “does not increase the sensitivity of OPCs to temozolomide”. The “vulnerability / resistance of TMXR MCF-7 cells to 4^OH-CPP” value (TMXR MCF-7 cells) was “only slightly increased vulnerability to 4^OH-CPP”, the “tamoxifen sensitivity of tamoxifen-resistant luminal breast cancer cells” value [5] was “increase in tamoxifen sensitivity” and the “levels of the complex between c-Cbl and Cool-1/βpix” value [6] was “causes a decrease in levels of the complex”.

For `Cc1cccc(CN2CCN(C(c3ccccc3)c3ccc(Cl)cc3)CC2)c1` (stereo not shown) [meclizine], the “sensitivity of GBM cells to TMX” value (GBM cells [2]) was “increased the vulnerabilty of GBM cells to TMX”.

In the case of `OCCNC1CCCc2c1[nH]c1ccc(-c3ccccc3)cc21` (stereo not shown) [CASIN], the “sensitivity of OPCs to TMX” value [4] is reported as “does not increase the vulnerability of OPCs to TMX”.

For `C=C(NC(=O)C(=C)NC(=O)c1csc(C2=N[C@@H]3c4csc(n4)[C@H]4NC(=O)c5csc(n5)[C@H]([C@](C)(O)[C@@H](C)O)NC(=O)[C@H]5CSC(=N5)/C(=C/C)NC(=O)[C@H]([C@@H](C)O)NC(=O)c5csc(n5)[C@]3(CC2)NC(=O)[C@H](C)NC(=O)C(=C)NC(=O)[C@H](C)NC(=O)[C@H]([C@@H](C)CC)N[C@@H]2C=Cc3c([C@H](C)O)cc(nc3[C@H]2O)C(=O)O[C@@H]4C)n1)C(N)=O` [thiostrepton], the “sensitivity of GBM cells to TMX” value (GBM cells [2]) was “does not increase sensitivity to TMX as potently as does MPT” and the c-Cbl phosphorylation (c-Cbl) was “not associated with a notable increase in c-Cbl phosphorylation”.

In the case of ML141, the “suppression of tumor growth” value (tumor growth) is given as “only provided partial suppression of tumor growth”.

With `CN(C)CCC=C1c2ccccc2CCc2ccccc21` [amitryptiline] the “sensitivity of GBM cells to TMX” value (GBM cells [2]) was “none of them were as effective as MPT”.

For `CN[C@H]1CC[C@@H](c2ccc(Cl)c(Cl)c2)c2ccccc21` [sertraline], the “sensitivity of MDA-MB-231 BLBC cells to TMX” value (MDA-MB-231 cells) was “increased the sensitivity of these cells to TMX; also recorded: increase in tamoxifen sensitivity” and the “sensitivity of OPCs to TMX” value [4] was “does not increase sensitivity of OPCs to TMX”.

With `O=P1(N(CCCl)CCCl)NCCCO1` (stereo not shown) [CPP, cyclophosphamide] the tumor growth (human TMXR MCF7 cells) was “already have initiated tumor growth midway through treatment”.

For `CC/C(=C(\c1ccccc1)c1ccc(OCCN(C)C)cc1)c1ccccc1` [TMX, tamoxifen], the “levels of FoxM1, Sox2, HSF-1 and HSP70” value (GBM cells [1]) was “does not have the above effects”, the c-Cbl phosphorylation (c-Cbl) was “alone was not sufficient to activate c-Cbl” and the “tumor generation after transplant of 500,000 live treated cells” value (GBM TICs) was “generated tumors within three weeks”. For the same molecule, the “effect on cell division and survival” value (parental MCF-7 cells) was “cytostatic but not lethal”, the “cell division in the presence of TMX” value (TMXR MCF-7 cells; 1 μM TMX, TMXR cells) was “continue to divide” and the “vulnerability / resistance of TMXR MCF-7 cells to 4^OH-CPP” value (TMXR MCF-7 cells) was “only slightly increased vulnerability to 4^OH-CPP”.

For `OC(c1cc(C(F)(F)F)nc2c(C(F)(F)F)cccc12)C1CCCCN1` (stereo not shown) [mefloquine], the “sensitivity of melanoma cells to TMX” value (melanoma cells) was “increased the sensitivity of melanoma cells to TMX”.

With `Cn1nnc2c(C(N)=O)ncn2c1=O` [TMZ, temozolomide] the “week of treatment in which tumor size began to increase” value (hGBM27; hGBM27) was 4 week, the “increase in tumor size (photon flux) at 12 weeks” value (hGBM27; hGBM27, 3 weeks after cessation of treatment) was greater than 5000 fold and the “increase in tumor size (photon flux) at the end of 9 weeks of treatment” value (hGBM27; hGBM27, oral gavage 5 days on/2 days off) was greater than 100 fold. For the same molecule, the median survival (hGBM27; hGBM27 cohort) was 11.5 weeks, the “increase in tumor size at 12 weeks” value (hGBM10; hGBM10) was > 500 fold and 500 fold and the median survival (hGBM10; hGBM10 cohort) was 12 weeks. The “increase in lifespan over saline-treated mice” value (human GBM cells; median 9 week survival of saline-treated mice) was 30% and the “time lived after treatment was stopped” value (human GBM cells; mouse, in vivo) was 4-5 weeks and 2-6 weeks.

With `CNCCC(Oc1ccc(C(F)(F)F)cc1)c1ccccc1` (stereo not shown) [fluoxetine] the “sensitivity of GBM cells to TMX” value (GBM cells [2]) was “none of them were as effective as MPT”.
